Source: US20180106782A1, “HIGH THROUGHPUT CARDIOTOXICITY SCREENING PLATFORM” (The Board of Trustees of the Leland Stanford Junior …, priority 2016, published 2018)

What was measured:
[1] = tested on: CMs; conditions: 0.1 μM isoproterenol (Butler 2015); cited from earlier work
[2] = tested on: hiPSC-CMs; conditions: 1 μM isoproterenol (Yokoo 2009); cited from earlier work
[3] = tested on: μpatterned hiPSC-CMs; assay: movement of LifeAct-labeled myofibrils in beating μpatterned hiPSC-CMs (cross-correlation, Ncorr); assay type: cell-based, human; conditions: 1 μM and 10 nM omecamtiv mecarbil (FIG. 11)

SMILES: CC(C)NCC(O)c1ccc(O)c(O)c1 (stereo not shown) [isoproterenol]
- inotropic and chronotropic response in CMs [1]: positive inotropic and positive chronotropic responses
- beat rate [2]: increase
- mechanical output [2]: decrease

SMILES: COC(=O)N1CCN(Cc2cccc(NC(=O)Nc3ccc(C)nc3)c2F)CC1 [omecamtiv mecarbil]
- myofibril damage at other concentrations [3]: Such level of damage was also observed
